In US20120095036A1, “NOVEL SUBSTITUTED INDAZOLE AND AZA-INDAZOLE DERIVATIVES AS GAMMA SECRETASE MODULATORS” (priority 2009, published 2012):

Legend:
Format in all cases: cell-based
[1] = test system: Aβ42; assay: Method 2: Aβ42 Alphalisa on supernatant of SKNBE2 cells carrying APP 695 wild type; conditions: SKNBE2 cells APP 695 wild type, overnight
Protocol: (§1) Screening was carried out using SKNBE2 cells carrying the APP 695—wild type, grown in Dulbecco's Modified Eagle's Medium/Nutrient mixture F-12 (DMEM/NUT-mix F-12) (HAM) provided by Invitrogen (cat no. 10371-029) containing 5% Serum/Fe supplemented with 1% non-essential amino acids, 1-glutamine 2 mM, Hepes 15 mM, penicillin 50 U/ml (units/ml) en streptomycin 50 μg/ml. Cells were grown to near confluency.
(§2) The screening was performed using a modification of the assay as described in Citron et al (1997) Nature Medicine 3: 67. Briefly, cells were plated in a 384-well plate at 10^4 cells/well in Ultraculture (Lonza, BE12-725F) supplemented with 1% glutamine (Invitrogen, 25030-024), 1% non-essential amino acid (NEAA), penicillin 50 U/ml en streptomycin 50 μg/ml in the presence of test compound at different test concentrations. The cell/compound mixture was incubated overnight at 37° C., 5% CO2, The next day the media were assayed by two sandwich immuno-assays, for Aβ42 and Aβtotal.
(§3) Aβtotal and Aβ42 concentrations were quantified in the cell supernatant using the Aphalisa technology (Perkin Elmer). Alphalisa is a sandwich assay using biotinylated antibody attached to streptavidin coated donorbeads and antibody conjugated to acceptor beads. In the presence of antigen, the beads come into close proximity. The excitation of the donor beads provokes the release of singlet oxygen molecules that trigger a cascade of energy transfer in the acceptor beads, resulting in light emission. To quantify the amount of Aβ42 in the cell supernatant, monoclonal antibody specific to the C-terminus of Aβ42 (JRF/cAβ42/26) was coupled to the receptor beads and biotinylated antibody specific to the N-terminus of AB (JRF/AβN/25) was used to react with the donor beads. To quantify the amount of Aβtotal in the cell supernatant, monoclonal antibody specific to the N-terminus of AB (JRF/AβN/25) was coupled to the receptor beads and biotinylated antibody specific to the mid region of Aβ (biotinylated 4G8) was used to react with the donor beads.
(§4) To obtain the values reported in Table 3b, the data were calculated as percentage of the maximum amount of amyloid Beta 42 measured in the absence of the test compound. The sigmoidal dose response curves were analyzed using non-linear regression analysis with percentage of the control plotted against the log concentration of the compound. A 4-parameter equation was used to determine the IC50.

[2] = test system: Aβ42; assay: Method 1: Aβ42 sandwich ELISA on media of SKNBE2 cells carrying APP 695 wild type (γ-secretase-modulating activity); conditions: SKNBE2 cells APP 695 wild type, 18 hours
Protocol: as §1, with “Gibco” for “Invitrogen”, “31330-38)” for “10371-029)”, “acids.” for “acids, 1-glutamine 2 mM, Hepes 15 mM, penicillin 50 U/ml (units/ml) en streptomycin 50 μg/ml.”
(§5) The screening was performed using the assay as described in Citron et al (1997) Nature Medicine 3: 67. Briefly, cells were plated in a 96-well plate at about 10^5 cells/ml one day prior to addition of compounds. Compounds were added to the cells in Ultraculture (Lonza, BE12-725F) supplemented with 1% glutamine (Invitrogen, 25030-024) for 18 hours. The media were assayed by two sandwich ELISAs, for Aβ42 and Aβtotal. Toxicity of the compounds was assayed by WST-1 cell proliferation reagent (Roche, 1 644 807) according to the manufacturer's protocol.
To quantify the amount of Aβ42 in the cell supernatant, commercially available Enzyme-Linked-Immunosorbent-Assay (ELISA) kits were used (Innotest® β-Amyloid(1-42), Innogenetics N.V., Ghent, Belgium). The Aβ42 ELISA was performed essentially according to the manufacturer's protocol. Briefly, the standards (dilutions of synthetic A131-42) were prepared in polypropylene Eppendorf with final concentrations of 8000 down to […] (½ dilution step). Samples, standards and blanks (100 μl) were added to the anti-Aβ42-coated plate supplied with the kit (the capture antibody selectively recognizes the C-terminal end of the antigen). The plate was allowed to incubate 3 h at 25° C. in order to allow formation of the antibody-amyloid complex. Following this incubation and subsequent wash steps a selective anti-A13-antibody conjugate (biotinylated 3D6) was added and incubated for a minimum of 1 hour in order to allow formation of the antibody-Amyloid-antibody-complex. After incubation and appropriate wash steps, a Streptavidine-Peroxidase-Conjugate was added, followed 30 minutes later by an addition of 3,3′,5,5′-tetramethylbenzidine (TMB)/peroxide mixture, resulting in the conversion of the substrate into a coloured product. This reaction was stopped by the addition of sulfuric acid (0.9 N) and the colour intensity was measured by means of photometry with an ELISA-reader with a 450 nm filter.
(§6) To obtain the values reported in Table 3a, the sigmoidal dose response curves were analysed by computerised curve-fitting, with percent of inhibition plotted against compound concentration. A 4-parameter equation (model 205) in XLfit was used to determine the IC50. The top and the bottom of the curve were fixed to 100 and 0, respectively, and the hill slope was fixed to 1. The IC50 represents the concentration of a compound that is required for inhibiting a biological effect by 50% (Here, it is the concentration where Aβ peptide level is reduced by 50%).

[3] = test system: Aβtotal; assay: Method 2: Aβtotal Alphalisa on supernatant of SKNBE2 cells carrying APP 695 wild type; conditions: SKNBE2 cells APP 695 wild type, overnight
Protocol: as §1, §2, §3, §4

[4] = test system: Aβtotal; assay: Method 1: Aβtotal sandwich ELISA on media of SKNBE2 cells carrying APP 695 wild type; conditions: SKNBE2 cells APP 695 wild type, 18 hours
Protocol: as §1, with “Gibco” for “Invitrogen”, “31330-38)” for “10371-029)”, “acids.” for “acids, 1-glutamine 2 mM, Hepes 15 mM, penicillin 50 U/ml (units/ml) en streptomycin 50 μg/ml.”
as §5
To quantify the amount of Aβtotal in the cell supernatant, samples and standards were added to a 6E10-coated plate. The plate was allowed to incubate overnight at 4° C. in order to allow formation of the antibody-amyloid complex. Following this incubation and subsequent wash steps a selective anti-AB-antibody conjugate (biotinylated 4G8) was added and incubated for a minimum of 1 hour in order to allow formation of the antibody-Amyloid-antibody-complex. After incubation and appropriate wash steps, a Streptavidine-Peroxidase-Conjugate was added, followed 30 minutes later by an addition of Quanta Blu fluorogenic peroxidase substrate according to the manufacturer's instructions (Pierce Corp., Rockford, Il).
as §6

Work on CCCCn1cc2cccc(Nc3ccc(-n4cnc(C)c4)c(OC)c3)c2n1 [Compound 3, 2-butyl-N-[3-methoxy-4-(4-methyl-1H-imidazol-1-yl)phenyl]-2H-indazol-7-amine .2HCl] yielded an IC50 ([1]; Homo sapiens) of under 3000 nM, an IC50 ([2]; Homo sapiens) of 113 nM and an IC50 ([3]; Homo sapiens) of over 3000 nM. For the same compound, the IC50 ([4]; Homo sapiens) was over 3000 nM.

In the case of COc1cccc(-n2nc3c(Nc4ccc(-c5ocnc5C)nc4)cccc3c2C)c1 [Compound 4, 2-(3-methoxyphenyl)-3-methyl-N-[6-(4-methyl-5-oxazolyl)-3-pyridinyl]-2H-indazol-7-amine], the IC50 ([1]; Homo sapiens) is reported as 22 nM, the IC50 ([2]; Homo sapiens) is reported as 55 nM and the IC50 ([3]; Homo sapiens) is reported as 4790 nM. The IC50 ([4]; Homo sapiens) was over 3000 nM.

COc1cccc(-n2nc3c(Nc4ccc(-n5cnc(C)n5)c(OC)c4)cccc3c2C)c1 [Compound 5, N-[3-methoxy-4-(3-methyl-1H-1,2,4-triazol-1-yl)phenyl]-2-(3-methoxyphenyl)-3-methyl-2H-indazol-7-amine .1.9HCl] was tested, and the IC50 ([1]; Homo sapiens) was 18 nM, the IC50 ([2]; Homo sapiens) was 31 nM and the IC50 ([3]; Homo sapiens) was 8130 nM. The IC50 ([4]; Homo sapiens) was over 3000 nM.

Compound COc1cc(Nc2cccc3cn(C)nc23)ccc1-n1cnc(C)c1 [Compound 9, N-[3-methoxy-4-(4-methyl-1H-imidazol-1-yl)phenyl]-2-methyl-2H-indazol-7-amine] has an IC50 ([1]; Homo sapiens) of under 3000 nM, an IC50 ([2]; Homo sapiens) of 1470 nM and an IC50 ([3]; Homo sapiens) of over 3000 nM. For the same compound, the IC50 ([4]; Homo sapiens) was over 10000 nM.

CCCCn1nc2c(Nc3ccc(-n4cnc(C)c4)c(OC)c3)cccc2c1C [Compound 10, 2-butyl-N-[3-methoxy-4-(4-methyl-1H-imidazol-1-yl)phenyl]-3-methyl-2H-indazol-7-amine .2HCl] was tested, and the IC50 [1] was under 3000 nM, the IC50 [2] was 99 nM and the IC50 [3] was over 3000 nM. The IC50 [4] was over 3000 nM.

With CCCCn1cc2cc(C#N)cc(Nc3ccc(-n4cnc(C)c4)c(OC)c3)c2n1 [Compound 11, 2-butyl-7-[[3-methoxy-4-(4-methyl-1H-imidazol-1-yl)phenyl]amino]-2H-indazole-5-carbonitrile .2HCl] the IC50 [1] was under 3000 nM, the IC50 [2] was 77 nM and the IC50 [3] was over 3000 nM. For the same compound, the IC50 [4] was over 3000 nM.

Work on CCCCn1cc2cc(CN)cc(Nc3ccc(-n4cnc(C)c4)c(OC)c3)c2n1 [Compound 12, 2-butyl-7-[[3-methoxy-4-(4-methyl-1H-imidazol-1-yl)phenyl]amino]-2H-indazole-5-methanamine .4HCl] yielded an IC50 [1] of over 3000 nM.

COc1cc(Nc2cccc3cn(CC4CC4)nc23)ccc1-n1cnc(C)c1 [Compound 13, 2-(cyclopropylmethyl)-N-[3-methoxy-4-(4-methyl-1H-imidazol-1-yl)phenyl]-2H-indazol-7-amine .2HCl] showed an IC50 [1] of 79 nM, an IC50 [2] of 283 nM and an IC50 [3] of over 10000 nM. It also gave an IC50 [4] of over 3000 nM.

With CCOc1cc(C)c(-n2nc3c(Nc4ccc(-n5cnc(C)c5)c(OC)c4)cccc3c2C)cc1C(C)C [Compound 14, 2-[4-ethoxy-2-methyl-5-(1-methylethyl)phenyl]-N-[3-methoxy-4-(4-methyl-1H-imidazol-1-yl)phenyl]-3-methyl-2H-indazol-7-amine] the IC50 ([1]; Homo sapiens) was 20 nM, the IC50 ([2]; Homo sapiens) was 29 nM and the IC50 ([3]; Homo sapiens) was 7080 nM.

COc1cc(Nc2cccc3cn(C)nc23)ccc1-n1cnc(C)n1 [Compound 17, N-[3-methoxy-4-(3-methyl-1H-1,2,4-triazol-1-yl)phenyl]-2-methyl-2H-indazol-7-amine] showed an IC50 ([1]; Homo sapiens) of over 3000 nM and an IC50 ([3]; Homo sapiens) of over 3000 nM.

Cc1ncc(-c2ccc(Nc3cccc4cn(C5CCC5)nc34)cc2)o1 [Compound 26, 2-cyclobutyl-N-[4-(2-methyl-5-oxazolyl)phenyl]-2H-indazol-7-amine .1.2HCl] gave an IC50 [1] of over 3000 nM and an IC50 [3] of over 3000 nM.

COCCn1cc2cccc(Nc3ccc(-c4cnc(C)o4)cc3)c2n1 [Compound 27, 2-(2-methoxyethyl)-N-[4-(2-methyl-5-oxazolyl)phenyl]-2H-indazol-7-amine .1.5HCl .1.25H2O] gave an IC50 [1] of over 3000 nM.

COCCn1cc2cccc(Nc3ccc(-c4ocnc4C)c(OC)c3)c2n1 [Compound 36, 2-(2-methoxyethyl)-N-[3-methoxy-4-(4-methyl-5-oxazolyl)phenyl]-2H-indazol-7-amine .1.5HCl .0.18H2O] gave an IC50 [1] of over 3000 nM.

Work on Cc1ncc(-c2ccc(Nc3cccc4cn(CC5CC5)nc34)cn2)o1 [Compound 43, 2-(cyclopropylmethyl)-N-[6-(2-methyl-5-oxazolyl)-3-pyridinyl]-2H-indazol-7-amine .2HCl] yielded an IC50 [1] of 1410 nM.

Cc1ncc(-c2ccc(Nc3cc(F)cc4c(C)n(-c5ccc(F)cc5)nc34)cn2)o1 [Compound 47, 5-fluoro-2-(4-fluorophenyl)-3-methyl-N-[6-(2-methyl-5-oxazolyl)-3-pyridinyl]-2H-indazol-7-amine] showed an IC50 ([1]; Homo sapiens) of 35 nM and an IC50 ([3]; Homo sapiens) of 6920 nM.

In the case of COc1cc(Nc2cccc3cn(C)nc23)ccc1-c1cnc(C)s1 [Compound 49, N-[3-methoxy-4-(2-methyl-5-thiazolyl)phenyl]-2-methyl-2H-indazol-7-amine], the IC50 ([1]; Homo sapiens) is reported as over 3000 nM and the IC50 ([3]; Homo sapiens) is reported as over 3000 nM.

Work on COc1cc(Nc2cccc3c(C)n(-c4ccc(F)cc4F)nc23)ccc1-c1cnc(C)s1 [Compound 50, 2-(2,4-difluorophenyl)-N-[3-methoxy-4-(2-methyl-5-thiazolyl)phenyl]-3-methyl-2H-indazol-7-amine] yielded an IC50 ([1]; Homo sapiens) of 676 nM, an IC50 ([2]; Homo sapiens) of 865 nM and an IC50 ([3]; Homo sapiens) of over 10000 nM.

COc1cccc(-n2nc3c(Nc4ccc(-c5ccnn5C)cc4)cccc3c2C)c1 [Compound 53, 2-(3-methoxyphenyl)-3-methyl-N-[4-(1-methyl-1H-pyrazol-5-yl)phenyl]-2H-indazol-7-amine .2HCl .0.5H2O] gave an IC50 [1] of 631 nM and an IC50 [3] of over 10000 nM.

Compound Cc1cn(-c2ccc(Nc3cncc4cn(CC(F)(F)F)nc34)cc2F)cn1 [Compound 55, N-[3-fluoro-4-(4-methyl-1H-imidazol-1-yl)phenyl]-2-(2,2,2-trifluoroethyl)-2H-pyrazolo[4,3-c]pyridin-7-amine] has an IC50 ([1]; Homo sapiens) of 603 nM and an IC50 ([3]; Homo sapiens) of over 10000 nM.

COc1cc(Nc2cc(C(C)C)nc3cn(CC(F)(F)F)nc23)ccc1-n1cnc(C)n1 [Compound 56, N-[3-methoxy-4-(3-methyl-1H-1,2,4-triazol-1-yl)phenyl]-5-(1-methylethyl)-2-(2,2,2-trifluoroethyl)-2H-pyrazolo[4,3-b]pyridin-7-amine] gave an IC50 ([1]; Homo sapiens) of 708 nM and an IC50 ([3]; Homo sapiens) of over 10000 nM.
